ChEMBL document CHEMBL1144632, “The rational design of inhibitors of nitric oxide formation by inducible nitric oxide synthase” (Bioorg Med Chem Lett, 2007)
Activity calls are given as the source filed them. The rule behind the calls is not given here.

What follows are molecules tested against T1, Nitric oxide synthase 3 (Homo sapiens) (UniProt P29474) (assay: Inhibition of eNOS).
T1 sequence (whole entry): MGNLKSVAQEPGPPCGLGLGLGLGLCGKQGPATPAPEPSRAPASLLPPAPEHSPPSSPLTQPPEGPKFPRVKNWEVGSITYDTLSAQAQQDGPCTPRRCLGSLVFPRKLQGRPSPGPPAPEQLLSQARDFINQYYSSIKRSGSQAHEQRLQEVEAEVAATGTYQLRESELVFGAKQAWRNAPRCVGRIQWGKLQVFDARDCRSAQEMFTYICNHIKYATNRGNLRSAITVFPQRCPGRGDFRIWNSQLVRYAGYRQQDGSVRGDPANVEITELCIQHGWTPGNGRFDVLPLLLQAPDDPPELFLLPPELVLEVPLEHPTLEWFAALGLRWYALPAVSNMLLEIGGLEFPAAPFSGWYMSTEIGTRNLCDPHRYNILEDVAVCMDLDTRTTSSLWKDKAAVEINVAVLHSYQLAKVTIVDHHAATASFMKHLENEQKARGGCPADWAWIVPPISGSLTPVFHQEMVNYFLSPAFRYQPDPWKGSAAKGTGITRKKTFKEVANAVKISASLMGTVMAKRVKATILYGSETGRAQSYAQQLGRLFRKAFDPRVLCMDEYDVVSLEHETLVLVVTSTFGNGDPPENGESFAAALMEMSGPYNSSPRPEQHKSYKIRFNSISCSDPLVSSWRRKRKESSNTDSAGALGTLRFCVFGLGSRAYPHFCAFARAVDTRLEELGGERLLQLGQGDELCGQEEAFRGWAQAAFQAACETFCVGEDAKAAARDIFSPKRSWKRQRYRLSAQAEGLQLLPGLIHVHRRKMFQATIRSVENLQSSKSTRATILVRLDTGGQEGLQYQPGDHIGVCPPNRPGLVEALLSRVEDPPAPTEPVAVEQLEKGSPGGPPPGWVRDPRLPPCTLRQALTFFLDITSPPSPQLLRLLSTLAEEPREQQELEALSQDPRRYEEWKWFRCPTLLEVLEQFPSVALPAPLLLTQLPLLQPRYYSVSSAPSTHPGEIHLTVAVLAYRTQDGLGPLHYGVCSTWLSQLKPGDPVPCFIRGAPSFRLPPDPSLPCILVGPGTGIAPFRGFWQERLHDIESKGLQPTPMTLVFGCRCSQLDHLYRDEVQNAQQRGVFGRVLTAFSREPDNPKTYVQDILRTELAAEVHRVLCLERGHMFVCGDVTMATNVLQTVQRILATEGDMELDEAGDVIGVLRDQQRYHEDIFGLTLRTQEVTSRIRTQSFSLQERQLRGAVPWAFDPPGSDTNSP
With c1cn(-c2ccc(Oc3nccc(Oc4ccc5c(c4)OCO5)n3)cc2)cn1 the Activity was “inactive”.

What follows are molecules tested against Nitric oxide synthase, inducible (Homo sapiens, UniProt P35228) (assay: Inhibition of iNOS in human A172 cells after 18 to 24 hrs).
Sequence of Nitric oxide synthase, inducible (P35228 whole entry): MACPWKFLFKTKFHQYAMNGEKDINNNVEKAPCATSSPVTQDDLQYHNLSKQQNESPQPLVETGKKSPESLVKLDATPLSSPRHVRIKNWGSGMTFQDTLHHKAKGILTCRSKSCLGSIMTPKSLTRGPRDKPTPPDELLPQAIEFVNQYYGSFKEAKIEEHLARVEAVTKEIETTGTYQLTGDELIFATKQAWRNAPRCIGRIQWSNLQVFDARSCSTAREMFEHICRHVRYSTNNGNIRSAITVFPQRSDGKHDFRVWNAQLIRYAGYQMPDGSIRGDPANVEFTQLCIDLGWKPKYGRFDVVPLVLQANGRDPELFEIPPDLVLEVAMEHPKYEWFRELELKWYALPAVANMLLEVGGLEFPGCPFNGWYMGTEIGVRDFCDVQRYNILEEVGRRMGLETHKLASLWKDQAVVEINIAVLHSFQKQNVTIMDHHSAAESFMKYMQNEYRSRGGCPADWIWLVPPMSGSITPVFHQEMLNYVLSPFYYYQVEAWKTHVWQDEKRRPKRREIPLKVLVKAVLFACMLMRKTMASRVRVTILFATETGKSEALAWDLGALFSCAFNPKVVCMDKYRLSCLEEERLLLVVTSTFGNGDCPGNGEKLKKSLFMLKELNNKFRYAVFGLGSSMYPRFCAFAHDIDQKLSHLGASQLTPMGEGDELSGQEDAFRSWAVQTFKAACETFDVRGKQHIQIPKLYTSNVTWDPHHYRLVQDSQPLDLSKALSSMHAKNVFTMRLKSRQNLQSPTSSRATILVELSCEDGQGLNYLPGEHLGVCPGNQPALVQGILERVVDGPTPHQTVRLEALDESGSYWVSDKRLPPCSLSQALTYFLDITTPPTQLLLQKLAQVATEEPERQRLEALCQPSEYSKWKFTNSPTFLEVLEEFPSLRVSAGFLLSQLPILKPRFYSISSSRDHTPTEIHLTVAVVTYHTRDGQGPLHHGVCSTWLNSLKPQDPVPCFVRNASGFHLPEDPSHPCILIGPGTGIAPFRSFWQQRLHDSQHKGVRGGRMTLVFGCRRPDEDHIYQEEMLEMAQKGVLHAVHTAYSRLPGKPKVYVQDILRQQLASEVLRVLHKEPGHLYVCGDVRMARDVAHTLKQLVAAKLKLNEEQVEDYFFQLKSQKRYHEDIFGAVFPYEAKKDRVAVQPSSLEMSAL
Type: cell-based, A 172
Work on c1cn(-c2ccc(Oc3nccc(Oc4ccc5c(c4)OCO5)n3)cc2)cn1 yielded an IC50 of 55 nM. Work on Cc1cc(Oc2ccc3c(c2)OCO3)nc(Oc2ccc(-n3ccnc3)cc2Cl)n1 yielded an IC50 of 19 nM. Cc1c(F)c(Oc2ccc(-n3ccnc3)cc2)nc(Oc2ccc3c(c2)OCO3)c1F was tested, and the IC50 was 450 nM. c1cn(-c2ccc(Oc3ccnc(Oc4ccc5c(c4)OCO5)n3)cc2)cn1 gave an IC50 of 74 nM. In the case of CN(C)CCCN(C)c1cc(Oc2ccc(-n3ccnc3)cc2)nc(Cc2ccc3c(c2)OCO3)n1, the IC50 is reported as 220 nM. c1cn(-c2ccc(Oc3cc(Oc4ccc5c(c4)OCO5)ncn3)cc2)cn1 was tested, and the IC50 was greater than 10000 nM. In the case of Cc1cc(Oc2ccc3c(c2)OCO3)nc(Oc2ccc(-n3ccnc3)cc2C(F)(F)F)n1, the IC50 is reported as 220 nM. Cc1cnc(Oc2ccc(-n3ccnc3)cc2)nc1Oc1ccc2c(c1)OCO2 was tested, and the IC50 was 130 nM. With Clc1cc(Oc2ccc(-n3ccnc3)cc2)nc(Cc2ccc3c(c2)OCO3)n1 the IC50 was greater than 10000 nM. c1cc(Oc2ccc(-n3ccnc3)cc2)nc(Oc2ccc3c(c2)OCO3)c1 gave an IC50 of 78 nM. For Cc1cc(Oc2ccc3c(c2)OCO3)nc(Oc2ccc(-n3ccnc3)cc2)n1, the IC50 was 90 nM. Work on c1cn(-c2ccc(Oc3cc(N4CCOCC4)nc(Cc4ccc5c(c4)OCO5)n3)cc2)cn1 yielded an IC50 of 830 nM. Cc1cc(Oc2ccc3c(c2)OCO3)nc(Oc2ccc(-n3ccnc3)cc2F)n1 gave an IC50 of 92 nM.

The molecules below were run against Nitric oxide synthase 1 (Homo sapiens) (UniProt P29475) (assay: Inhibition of bNOS).
Sequence of Nitric oxide synthase 1 (Homo sapiens) (P29475 whole entry): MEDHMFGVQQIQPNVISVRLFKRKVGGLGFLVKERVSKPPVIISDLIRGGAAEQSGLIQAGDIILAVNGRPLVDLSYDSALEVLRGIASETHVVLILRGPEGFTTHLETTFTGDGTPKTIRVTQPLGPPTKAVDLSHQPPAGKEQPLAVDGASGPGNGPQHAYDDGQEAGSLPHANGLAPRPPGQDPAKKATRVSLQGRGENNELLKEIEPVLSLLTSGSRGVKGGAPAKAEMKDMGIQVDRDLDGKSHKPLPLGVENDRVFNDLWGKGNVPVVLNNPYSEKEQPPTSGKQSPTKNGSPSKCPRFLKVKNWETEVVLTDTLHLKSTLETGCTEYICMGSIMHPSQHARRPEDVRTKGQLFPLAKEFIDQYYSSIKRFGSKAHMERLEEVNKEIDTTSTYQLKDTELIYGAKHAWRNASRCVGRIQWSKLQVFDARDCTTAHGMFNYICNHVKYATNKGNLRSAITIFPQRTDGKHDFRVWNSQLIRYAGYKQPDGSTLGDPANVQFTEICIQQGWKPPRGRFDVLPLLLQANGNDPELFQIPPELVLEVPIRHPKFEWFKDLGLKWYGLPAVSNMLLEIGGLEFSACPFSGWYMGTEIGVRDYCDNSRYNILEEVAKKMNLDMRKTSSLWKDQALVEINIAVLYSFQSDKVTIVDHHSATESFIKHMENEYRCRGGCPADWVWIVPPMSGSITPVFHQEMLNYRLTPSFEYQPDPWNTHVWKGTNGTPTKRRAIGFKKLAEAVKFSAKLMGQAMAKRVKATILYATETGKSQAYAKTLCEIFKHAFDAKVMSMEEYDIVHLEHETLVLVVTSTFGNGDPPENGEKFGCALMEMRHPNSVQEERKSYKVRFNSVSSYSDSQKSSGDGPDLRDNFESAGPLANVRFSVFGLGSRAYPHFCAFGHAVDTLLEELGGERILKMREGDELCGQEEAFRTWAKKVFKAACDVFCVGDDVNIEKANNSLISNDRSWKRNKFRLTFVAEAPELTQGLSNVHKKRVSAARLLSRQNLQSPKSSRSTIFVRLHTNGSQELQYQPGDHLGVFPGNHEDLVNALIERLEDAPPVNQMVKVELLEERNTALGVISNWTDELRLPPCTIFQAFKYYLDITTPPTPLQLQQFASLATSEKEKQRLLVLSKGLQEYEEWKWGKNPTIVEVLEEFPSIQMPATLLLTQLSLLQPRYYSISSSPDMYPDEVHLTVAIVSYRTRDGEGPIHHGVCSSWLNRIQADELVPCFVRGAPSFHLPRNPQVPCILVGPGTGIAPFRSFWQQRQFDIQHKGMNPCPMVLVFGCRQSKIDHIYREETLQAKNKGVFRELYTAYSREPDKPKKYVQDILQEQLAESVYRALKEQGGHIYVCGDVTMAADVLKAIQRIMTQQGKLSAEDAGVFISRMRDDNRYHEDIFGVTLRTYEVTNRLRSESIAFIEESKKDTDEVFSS
In the case of c1cn(-c2ccc(Oc3nccc(Oc4ccc5c(c4)OCO5)n3)cc2)cn1, the Activity is reported as “inactive”.
